Source: PMC7561186, “Rational design of balanced dual-targeting antibiotics with limited resistance” (PLoS Biology, 2020)
Several values for one entry are separate records, joined by “and”; a condition that tells them apart may be missing. Equal entries are not always repeated. Where two headings read alike, the source gives them in different places.

Columns and labels:
[1] = tested on: S. aureus VISA ATCC 700699 GyrB / ParE mutants; test: MIC of spontaneous resistant mutants (single-step and second-step); assay type: cell-based; settings: for MIC: Staphylococcus aureus
Method: (§1) MICs were determined using a standard serial broth microdilution technique according to the CLSI guidelines. Briefly, bacterial strains were inoculated onto MHBII agar plates and were grown overnight at 37 °C. Next, 3 individual colonies from each strain were inoculated into 1 mL MHBII medium and propagated at 37 °C, 250 rpm overnight. In the cases of Enterococcus and Streptococcus sp., cells were plated to BHI agar plates, and BHI broth was used to determine MICs. […] Following dilutions, each well was seeded with 5×10^4 bacterial cells. All measurements were performed in 3 parallel replicates and to avoid possible edge effects in microwell plates, side rows (A and H) were filled with sterile medium. Following inoculations, plates were covered with lids and wrapped in polyethylene plastic bags to minimize evaporation but allow for O2 transfer. Plates were incubated at 37 °C under continuous shaking at 150 rpm for 18 hours. After incubation, OD600 of each well was measured using a BioTek Synergy 2 microplate reader.

[2] = Pharmacokinetics measurement in skin tissue; assay type: in vivo, mice; settings: for Drug concentration in mouse skin tissue (individual mice) / Drug concentration in mouse skin tissue, Mean: 73 h, 3 days twice-a-day topical 20 μL ointment containing 2% drug; for Drug concentration in mouse skin tissue, Mean: n = 3; for skin concentration as multiple of the MIC in wild-type S. aureus VISA: topical treatment, mouse skin
Method: Pharmacokinetics measurement of ULD1 and ULD2 in skin tissue was conducted parallelly with the mice dermal infection study. In all cases, skin tissue samples were collected at the termination and homogenized following the same method as homogenate preparation for bacterial enumeration. Before measurement, protein precipitation was performed by treating the samples with acetonitrile. Analytics were the performed by liquid chromatography coupled mass spectrometry (LC/MS/MS) on an AB SCIEX QTRAP mass spectrometer in electrospray, positive ions ionization mode, and with Multiple Reaction Monitoring scan mode. Samples were analyzed on a Phenomenex Luna 5u Phenyl-Hexyl 50 × 2.0 mm HPLC column in a mobile phase of A: acetonitrile/formic acid = 100/0.2 (v/v), and mobile phase of B: water / formic acid = 100/0.2 (v/v). The column’s temperature was set to 30 °C, the injection volumes were 10 μL, and measurement time was 5 minutes in all cases. Oxybutynin (0.01 ng/μL in acetonitrile) was used as an internal standard for the measurement. Finally, the concentration of the drug in tissue samples was calculated from the peak area ratio.

Enterococcus faecium = test: MIC, broth microdilution (CLSI); assay type: cell-based
Method: as §1

Acinetobacter baumannii = test: MIC, broth microdilution (CLSI); assay type: cell-based
Method: as §1

[3] = tested on: S. aureus Mu50 (VISA) ATCC 700699; test: Neutropenic thigh infection model; assay type: in vivo, CD-1 mice; settings: for Log CFU/g thigh: neutropenic thigh infection, Staphylococcus aureus Mu50 ATCC 700699 (VISA), individual animals
Method: Neutropenic mouse thigh infection experiments were performed on female CD-1 mice (Charles River Laboratories, USA). To induce neutropenia, mice received 2 doses of cyclophosphamide on days -4 and -1 with 150 mg/kg, and 100 mg/kg delivered intraperitoneally (IP), respectively. The inoculum of the testing strain, S. aureus Mu50 (VISA) ATCC 700699, was prepared from overnight agar plate cultures. To prepare bacterial inoculums, a portion of the plate was resuspended in sterile saline and adjusted to an OD of 0.12 at 625 nm. Next, the resulted bacterial suspension was further diluted to reach an infecting inoculum of 6.0×10^5 CFU per each mouse. Mice were inoculated with 100 μL of the prepared bacterial suspension via intramuscular injection into the right rear thigh. Plate counts of the inoculum were also performed in each case to confirm inoculum concentration and the actual inoculum size was 6.9×10^5 CFU/mouse. […] Test agent was then dosed via IV administration at 2, 8, 14, and 20 hours postinfection. Beginning at 2 hours, postinfection mice were dosed with either test article or positive control antibiotic. Mice receiving test agents were dosed intravenously at 10 mL/kg. Linezolid was delivered as a subcutaneous dose. Four animals were dosed per group. One group of 4 mice were euthanized at initiation of therapy (T = 2 hours) and CFUs determined. All remaining mice were euthanized at 26 hours postinfection. At termination, thighs were aseptically excised, weighed, and homogenized to a uniform consistency in 2 mL of sterile saline. The homogenate was serially diluted and plated on bacterial growth media. The CFUs were enumerated after overnight incubation.

[4] = tested on: Staphylococcus epidermidis; test: MIC, broth microdilution (CLSI); assay type: cell-based; settings: Staphylococcus epidermidis ATCC 51625, MRSE
Method: as §1

[5] = second-step mutant, selection ULD1 at 16× MIC, GyrB I175T, ParE A120D
[6] = second-step mutant, selection ULD1 at 16× MIC, GyrB I175T, ParE F95Y
[7] = second-step mutant, selection ULD1 at 16× MIC, GyrB I175T, ParE T166A
[8] = second-step mutant, selection ULD1 at 16× MIC, GyrB I175T, ParE T166I
[9] = second-step mutant, selection ULD1 at 16× MIC, GyrB R144I, ParE A120D
[10] = second-step mutant, selection ULD1 at 16× MIC, GyrB R144I, ParE F95Y
[11] = second-step mutant, selection ULD1 at 16× MIC, GyrB R144I, ParE R136G
[12] = second-step mutant, selection ULD2 at 8× MIC, GyrB I175T, ParE A120D
[13] = second-step mutant, selection ULD2 at 12× MIC, GyrB R144I, ParE A120D
[14] = second-step mutant, selection ULD2 at 12× MIC, GyrB R144I, ParE F95Y
[15] = second-step mutant, selection ULD2 at 12× MIC, GyrB R144I, ParE R136G
[16] = Enterococcus faecium ATCC 19434
[17] = Enterococcus faecium ATCC 700221, VRE (VanA+)
[18] = Enterococcus faecium CCUG 56858, VRE (VanB+)
[19] = ATCC19606, Acinetobacter baumannii ATCC 19606
[20] = Acinetobacter baumannii ATCC 17978
[21] = Acinetobacter baumannii ATCC 19606

Row | SMILES | MIC ([1]; VISA GyrB I175T) | MIC ([1]; VISA GyrB R144G) | MIC ([1]; VISA GyrB R144I) | MIC ([1]; VISA wt, read-out: MIC) | MIC [1, 5] | MIC [1, 6] | MIC [1, 7] | MIC [1, 8] | MIC [1, 9] | MIC [1, 10] | MIC [1, 11] | MIC [1, 12] | MIC [1, 13] | MIC [1, 14] | MIC [1, 15] | Drug concentration in mouse skin tissue (individual mice) [2] | Drug concentration in mouse skin tissue, Mean [2] | skin concentration as multiple of the MIC in wild-type S. aureus VISA [2] | MIC (Enterococcus faecium; [16]) | MIC (Enterococcus faecium; [17]) | further results
1 | Cc1[nH]c(C(=O)Nc2nc3c(OCc4ccccc4)cc(C(=O)O)cc3s2)c(Cl)c1Cl [ULD2] | 0.088 µg/mL | 0.058 µg/mL | 0.058 µg/mL | 0.02 µg/mL | 0.25 µg/mL | 0.25 µg/mL | 0.125 µg/mL | 0.25 µg/mL | 0.25 µg/mL | 0.125 µg/mL | 0.25 µg/mL | 1 µg/mL | 0.125 µg/mL | 0.25 µg/mL | 0.25 µg/mL | 4224 ng/mL and 6654 ng/mL and 10244 ng/mL | 7041 ng/mL | up to 300 times the MIC | 0.5 µg/mL | 0.0625 µg/mL | MIC ([1]; second-step mutant, selection ULD1 at 16× MIC, GyrB R144I, ParE R136L): 0.125 µg/mL; concentration inhibiting all isolated double mutants and laboratory evolved strains ([1]; {}): ≤ 1 µg/mL; concentration inhibiting all isolated second-step resistant mutants ([1]; {}): ≤ 1 µg/mL; MIC (Enterococcus faecium; [18]): 0.25 µg/mL; MIC (Acinetobacter baumannii; [19]): 0.5 µg/mL; MIC (Acinetobacter baumannii; [20]): 2 µg/mL; MIC (Acinetobacter baumannii; [21]): 0.5 µg/mL
2 | CC(=O)NC[C@H]1CN(c2ccc(N3CCOCC3)c(F)c2)C(=O)O1 [Linezolid] | – | – | – | – | – | – | – | – | – | – | – | – | – | – | – | – | – | – | – | – | Log CFU/g thigh ([3]; 50 mg/kg): 5.65 Log CFU/g thigh and 6.12 Log CFU/g thigh and 4.95 Log CFU/g thigh
3 | Cc1[nH]c(C(=O)Nc2nc3ccc(C(=O)O)cc3s2)c(Cl)c1Cl [ULD1] | 0.198 µg/mL | 0.132 µg/mL | 0.198 µg/mL | 0.04 µg/mL | 4 µg/mL | 4 µg/mL | 2 µg/mL | 2 µg/mL | 2 µg/mL | 2 µg/mL | 2 µg/mL | 4 µg/mL | 2 µg/mL | 2 µg/mL | 4 µg/mL | 8853 ng/mL and 14630 ng/mL and 6624 ng/mL | 10036 ng/mL | up to 300 times the MIC | 2 µg/mL | 0.0625 µg/mL | MIC ([1]; second-step mutant, selection ULD1 at 16× MIC, GyrB I175T, ParE R136G): 4 µg/mL; antibacterial activity after intravenous administration ([3]; neutropenic murine thigh infection, S. aureus VISA, comparable to linezolid, in words): potent antibacterial activity; Log CFU/g thigh ([3]; 10 mg/kg): 7.54 Log CFU/g thigh and 7.91 Log CFU/g thigh and 8.09 Log CFU/g thigh and 8.46 Log CFU/g thigh; Log CFU/g thigh ([3]; 25 mg/kg): 6.73 Log CFU/g thigh and 6.88 Log CFU/g thigh and 7.28 Log CFU/g thigh and 6.95 Log CFU/g thigh; Log CFU/g thigh ([3]; 50 mg/kg): 5.41 Log CFU/g thigh and 5.69 Log CFU/g thigh; MIC (Enterococcus faecium; Enterococcus faecium BAA-2320, VRE (VanA+)): 0.25 µg/mL; MIC (Enterococcus faecium; [18]): 2 µg/mL; MIC [4]: 0.0625 µg/mL; MIC (Acinetobacter baumannii; [19]): 2 µg/mL; MIC (Acinetobacter baumannii; [20]): 4 µg/mL; MIC (Acinetobacter baumannii; [21]): 2 µg/mL
